We go through 10 molecules from ChEMBL document CHEMBL1201862, “PubChem BioAssay data set” (2004).

Test in all cases: growth of human tumour cells (NCI), 48 h
The subject of test [1] is COLO 205.
Test [2] has as its system SK-OV-3.
The test system of test [3] is RPMI-8226.
Test [4] concerns SN12C.
Test [5] deals with HL-60.
Test [6] deals with SW-620.
Test [7] concerns DU-145.
Test [8] relates to SK-MEL-2.
The test system of test [9] is MDA-MB-435.
Test [10] has as its system UO-31.
The test system of test [11] is NCI-H226.
The test system of test [12] is NCI/ADR-RES.
Test [13] has as its system OVCAR-5.
Test [14] relates to SR.
Test [15] relates to SNB-19.
For test [16], the system named is EKVX.
Test [17] concerns MCF7.
Test [18] relates to ACHN.
The subject of test [19] is T47D.
Test [20] concerns CCRF-CEM.

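Exposure lasted 48 hours, with cells grown in 96-well plates and compounds tested at five concentrations. At the GI50, growth is halved.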 Calls of active or inactive are those of the source. Rule as the data show it: active = GI50 up to about 1.1 µM and inactive = higher.

As to `CC1=C(C(=O)Nc2ccccc2)C(c2ccc(C)o2)C(C#N)=C(SCc2ccccc2)N1` (stereo not drawn), the GI50 in test [1] is 31.3 µM (inactive); in test [2] it was > 100 µM (inactive); in test [3] it was 25.1 µM (inactive); in test [4], > 100 µM (inactive); in test [5] it was 17.7 µM (inactive); in [6], > 58.6 µM (inactive). For the same molecule, the GI50 in test [7] is > 100 µM (inactive); in test [8], > 100 µM (inactive); in [9] it was 4.58 µM (inactive); in test [10], 99.3 µM (inactive); in test [11] it was > 100 µM (inactive); in test [12] it was 18.7 µM (inactive). The GI50 in test [13] was > 100 µM (inactive); in test [14], 4.75 µM (inactive); in [15], > 100 µM (inactive); in [16], > 84.3 µM (inactive); in [17], 19.8 µM (inactive); in test [18], > 100 µM (inactive). Also, the figures for the GI50 in test [19] and in test [20] were 13.3 µM (inactive) and 13.2 µM (inactive), respectively.

With `O=C1C(Cl)=C(Nc2ccc(S(=O)(=O)Nc3ccccn3)cc2)C(=O)c2ccccc21`, the GI50 in test [1] is 13.9 µM (inactive); in [2], 17 µM (inactive); in test [3], 3.52 µM (inactive); in [4] it was 11.3 µM (inactive); in test [5], 3.3 µM (inactive); in test [6], 5.78 µM (inactive). Besides, the GI50 in test [7] was 7.91 µM (inactive); in test [8], 5.7 µM (inactive); in test [9], 6.55 µM (inactive); in test [10], 9.84 µM (inactive); in test [11], 20.7 µM (inactive); in test [12], 9.93 µM (inactive). Moreover, the GI50 in [13] was 17.9 µM (inactive); in test [14], 3.03 µM (inactive); in test [15], 16.4 µM (inactive); in test [16], 9.4 µM (inactive); in [17], 5.15 µM (inactive); in test [18], 10.6 µM (inactive). Also, the GI50 in test [19] was 6.08 µM (inactive); in test [20], 3.68 µM (inactive).

`C=C(C(=O)OC)N1C(=O)CC(C)C1=O` (stereo not drawn): the GI50 in test [1] was 4.2 µM (inactive); in test [2], 35.7 µM (inactive); in test [3], 4.91 µM (inactive); in test [4], 16.1 µM (inactive); in [5], 1.37 µM (inactive); in test [6] it was 9.35 µM (inactive). Moreover, the GI50 is 15.8 µM (inactive) in test [7]; 16.9 µM (inactive) in test [8]; 16.9 µM (inactive) in test [9]; 13.1 µM (inactive) in [10]; 27 µM (inactive) in [11]; 15.6 µM (inactive) in [12]. For the same molecule, the GI50 in test [13] was 15.1 µM (inactive); in test [14], 2.59 µM (inactive); in test [15], 21.4 µM (inactive); in test [16], 14.7 µM (inactive); in test [17], 10.3 µM (inactive); in test [18] it was 2.83 µM (inactive). In addition, the GI50 in [19] is 11.1 µM (inactive); in test [20] it was 1.7 µM (inactive).

For `NC(=O)[N+](=CC(=S)Nc1ccccc1Cl)C(N)=O`, the GI50 in test [1], in test [2], in test [3], in test [4], in test [5] and in test [6] was > 100 µM (inactive) throughout. Further, the GI50 in test [7], in test [8], in test [9], in test [10], in test [11] and in test [12] was > 100 µM (inactive) throughout. For the same molecule, the GI50 is > 100 µM (inactive) in test [13]; 28.7 µM (inactive) in test [14]; 71.4 µM (inactive) in test [15]; > 100 µM (inactive) in [16]; > 100 µM (inactive) in test [17]; > 100 µM (inactive) in test [18]. Moreover, the GI50 in test [19] and in [20] was > 100 µM (inactive) each time.

Consider `CC1=C(Br)C(=O)C(C)=C(Br)C1=O.Cc1c(O)c(Br)c(C)c(O)c1Br`, for which the GI50 in test [1] is 1.98 µM (inactive); in test [2], 15.6 µM (inactive); in test [3], 2.27 µM (inactive); in [4], 1.8 µM (inactive); in test [5] it was 1.12 µM (active); in [6], 1.97 µM (inactive). The GI50 was 2.31 µM (inactive) in test [7]; 3.53 µM (inactive) in [8]; 1.89 µM (inactive) in test [9]; 1.85 µM (inactive) in test [10]; 6.65 µM (inactive) in test [11]; 4.31 µM (inactive) in test [12]. Also, the GI50 was 10.8 µM (inactive) in test [13]; 0.925 µM (active) in test [14]; 18.1 µM (inactive) in test [15]; 1.85 µM (inactive) in [16]; 1.96 µM (inactive) in [17]; 1.68 µM (inactive) in [18]. Also, the GI50 in test [19] was 2.52 µM (inactive); in test [20] it was 0.216 µM (active).

On to `O=C(O)/C=N/NC(=S)NC1CCCCC1`, for which the GI50 in test [1], in [2], in [3], in test [4], in test [5] and in [6] was > 100 µM (inactive) in each case. Further, the GI50 in [7], in [8], in [9], in test [10], in [11] and in test [12] was > 100 µM (inactive) throughout. For the same molecule, the GI50 in [13], in test [14], in [15], in test [16], in [17] and in test [18] was > 100 µM (inactive) throughout. Moreover, the GI50 in [19] and in test [20] was > 100 µM (inactive) each time.

With `Oc1c(/N=N/c2ccccc2)c2ccccc2c2ccc3ccccc3c12`, the GI50 was > 100 µM (inactive) in test [1]; > 100 µM (inactive) in test [2]; 45.6 µM (inactive) in test [3]; > 100 µM (inactive) in [4]; 47.3 µM (inactive) in test [5]; > 100 µM (inactive) in [6]. For the same molecule, the GI50 in [7], in test [8], in test [9], in test [10], in test [11] and in test [12] was > 100 µM (inactive) in each case. Further, the GI50 is > 100 µM (inactive) in test [13]; 17.9 µM (inactive) in test [14]; > 100 µM (inactive) in test [15]; 50.4 µM (inactive) in [16]; > 100 µM (inactive) in test [17]; 55.3 µM (inactive) in test [18]. In addition, the results for the GI50 in test [19] and in [20] were > 100 µM (inactive) and 43.9 µM (inactive), respectively.

In the case of `Cc1cnc2c(c1)C(=O)N(c1ccc(Oc3ccccc3)cc1)S2(=O)=O`, the GI50 in [1], in test [2], in [3], in [4], in test [5] and in test [6] was > 100 µM (inactive) in each case. Moreover, the GI50 in test [7] was > 100 µM (inactive); in test [8] it was > 100 µM (inactive); in test [9] it was > 100 µM (inactive); in [10], > 100 µM (inactive); in [11], 59.6 µM (inactive); in [12] it was > 100 µM (inactive). Besides, the GI50 in [13], in [14], in [15], in [16], in test [17] and in [18] was > 100 µM (inactive) in each case. Besides, the GI50 in test [19] and in test [20] was > 100 µM (inactive) in each case.

As for `Clc1cccc(Cl)c1C1ON=C(c2ccccc2)N1C12CC3CC(CC(C3)C1)C2` (stereo not drawn), the GI50 was 11.9 µM (inactive) in test [1]; 98.2 µM (inactive) in test [2]; 6.64 µM (inactive) in test [3]; 41.6 µM (inactive) in test [4]; 3.3 µM (inactive) in test [5]; 76.9 µM (inactive) in [7]. The GI50 in [8] was 12.1 µM (inactive); in test [9] it was 17.9 µM (inactive); in test [10], 58.5 µM (inactive); in test [11], 43.3 µM (inactive); in [12], 15.2 µM (inactive); in test [13] it was > 100 µM (inactive). In addition, the GI50 in [14] is 5.35 µM (inactive); in test [15], 67.5 µM (inactive); in test [16], 37.4 µM (inactive); in test [17] it was 0.121 µM (active); in test [18], 11.2 µM (inactive); in test [19] it was 11.4 µM (inactive). In [20], the GI50 was 10.4 µM (inactive).

As for `CSc1c(C#N)c(O)n(-c2ccc(Cl)cc2)c(=O)c1C(C)=O`, the GI50 in [1] is 24.2 µM (inactive); in test [2], > 100 µM (inactive); in test [3] it was 26 µM (inactive); in test [4] it was > 100 µM (inactive); in test [5] it was 18.4 µM (inactive); in test [6], 44.7 µM (inactive). Also, the GI50 in test [7] was 70.6 µM (inactive); in test [8], > 100 µM (inactive); in test [9], 88.3 µM (inactive); in test [10], 24.9 µM (inactive); in [11], 26.9 µM (inactive); in test [12], 38.4 µM (inactive). In addition, the GI50 in [13] was 45.7 µM (inactive); in test [14] it was 30.5 µM (inactive); in test [15], 88.5 µM (inactive); in test [16], > 100 µM (inactive); in test [17], 52.4 µM (inactive); in test [19] it was 27.1 µM (inactive). Further, in test [20], the GI50 was 17 µM (inactive).
